For orientation: IC50 means the concentration needed to halve the response being measured. A high value points to weaker potency in that assay. Usually EC50 stands for the midpoint of the concentration-response curve.

The structures appear in SMILES notation. A value given as a limit tells only on which side of the number the result lay.

Experiment [1] deals with Multidrug resistance-associated protein 1 (Homo sapiens, UniProt P33527). Briefly: Inhibition of multidrug resistance associated protein type 1 (MRP1) assayed by an accumulation assay in COR.L23/R cells. Type of experiment: functional, cell-based.
Experiment [2] addresses ATP-dependent translocase ABCB1 (Mus musculus, UniProt P06795). Description: Inhibitory activity against P-glycoprotein (Pgp) using accumulation assay for Pgp expressing EMT6/AR1.0 cells. It is filed as functional.
Experiment [3] in a line: Compound was evaluated for its inhibitory activity against multidrug resistance associated protein type 1 (MRP) using potentiation assay. It is filed as functional, Homo sapiens.
Another experiment relates to EMT6. Briefly: Compound was evaluated for its inhibitory activity against P-glycoprotein (Pgp) using potentiation assay. The note with it: Mus musculus. It is filed as functional, cell-based.

Chain of Multidrug resistance-associated protein 1 (P33527 whole entry): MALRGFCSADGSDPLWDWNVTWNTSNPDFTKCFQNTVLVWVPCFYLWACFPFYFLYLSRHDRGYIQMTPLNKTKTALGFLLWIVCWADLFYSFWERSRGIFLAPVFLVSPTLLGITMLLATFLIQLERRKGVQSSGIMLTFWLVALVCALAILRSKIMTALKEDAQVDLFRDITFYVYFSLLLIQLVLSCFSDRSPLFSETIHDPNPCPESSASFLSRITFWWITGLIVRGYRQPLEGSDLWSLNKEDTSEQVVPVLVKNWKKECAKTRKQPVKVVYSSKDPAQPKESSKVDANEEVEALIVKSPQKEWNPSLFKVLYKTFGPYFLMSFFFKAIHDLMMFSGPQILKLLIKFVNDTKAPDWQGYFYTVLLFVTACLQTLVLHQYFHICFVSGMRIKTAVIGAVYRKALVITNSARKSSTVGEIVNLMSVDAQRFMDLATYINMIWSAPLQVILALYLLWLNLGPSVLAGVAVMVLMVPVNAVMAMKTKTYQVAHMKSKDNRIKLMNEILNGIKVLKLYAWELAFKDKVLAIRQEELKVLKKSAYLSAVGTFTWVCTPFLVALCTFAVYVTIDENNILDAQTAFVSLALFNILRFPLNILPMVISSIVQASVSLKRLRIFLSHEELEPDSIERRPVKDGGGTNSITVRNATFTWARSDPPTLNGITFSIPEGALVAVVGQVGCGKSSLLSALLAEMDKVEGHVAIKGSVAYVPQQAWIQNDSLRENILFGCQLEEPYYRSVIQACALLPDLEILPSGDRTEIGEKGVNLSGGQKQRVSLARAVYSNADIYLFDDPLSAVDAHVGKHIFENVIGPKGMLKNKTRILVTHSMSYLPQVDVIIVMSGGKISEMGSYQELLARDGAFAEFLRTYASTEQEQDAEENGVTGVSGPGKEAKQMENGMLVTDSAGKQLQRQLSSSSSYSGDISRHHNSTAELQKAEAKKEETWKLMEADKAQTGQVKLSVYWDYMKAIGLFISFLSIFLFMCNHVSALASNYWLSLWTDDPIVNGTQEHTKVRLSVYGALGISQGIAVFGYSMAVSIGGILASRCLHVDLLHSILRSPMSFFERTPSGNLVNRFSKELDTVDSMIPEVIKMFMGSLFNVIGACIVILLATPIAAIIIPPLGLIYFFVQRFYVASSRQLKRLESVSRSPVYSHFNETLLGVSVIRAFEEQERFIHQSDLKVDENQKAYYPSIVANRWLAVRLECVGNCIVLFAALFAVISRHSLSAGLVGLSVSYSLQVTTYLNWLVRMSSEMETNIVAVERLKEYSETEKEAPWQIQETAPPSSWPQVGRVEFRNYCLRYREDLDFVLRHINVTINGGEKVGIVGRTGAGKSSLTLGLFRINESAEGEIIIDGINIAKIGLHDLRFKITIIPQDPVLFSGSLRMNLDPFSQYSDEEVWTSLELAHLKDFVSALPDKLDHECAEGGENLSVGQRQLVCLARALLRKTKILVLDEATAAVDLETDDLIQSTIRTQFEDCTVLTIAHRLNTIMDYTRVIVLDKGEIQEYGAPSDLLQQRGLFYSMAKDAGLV
Chain of ATP-dependent translocase ABCB1 (P06795 whole entry): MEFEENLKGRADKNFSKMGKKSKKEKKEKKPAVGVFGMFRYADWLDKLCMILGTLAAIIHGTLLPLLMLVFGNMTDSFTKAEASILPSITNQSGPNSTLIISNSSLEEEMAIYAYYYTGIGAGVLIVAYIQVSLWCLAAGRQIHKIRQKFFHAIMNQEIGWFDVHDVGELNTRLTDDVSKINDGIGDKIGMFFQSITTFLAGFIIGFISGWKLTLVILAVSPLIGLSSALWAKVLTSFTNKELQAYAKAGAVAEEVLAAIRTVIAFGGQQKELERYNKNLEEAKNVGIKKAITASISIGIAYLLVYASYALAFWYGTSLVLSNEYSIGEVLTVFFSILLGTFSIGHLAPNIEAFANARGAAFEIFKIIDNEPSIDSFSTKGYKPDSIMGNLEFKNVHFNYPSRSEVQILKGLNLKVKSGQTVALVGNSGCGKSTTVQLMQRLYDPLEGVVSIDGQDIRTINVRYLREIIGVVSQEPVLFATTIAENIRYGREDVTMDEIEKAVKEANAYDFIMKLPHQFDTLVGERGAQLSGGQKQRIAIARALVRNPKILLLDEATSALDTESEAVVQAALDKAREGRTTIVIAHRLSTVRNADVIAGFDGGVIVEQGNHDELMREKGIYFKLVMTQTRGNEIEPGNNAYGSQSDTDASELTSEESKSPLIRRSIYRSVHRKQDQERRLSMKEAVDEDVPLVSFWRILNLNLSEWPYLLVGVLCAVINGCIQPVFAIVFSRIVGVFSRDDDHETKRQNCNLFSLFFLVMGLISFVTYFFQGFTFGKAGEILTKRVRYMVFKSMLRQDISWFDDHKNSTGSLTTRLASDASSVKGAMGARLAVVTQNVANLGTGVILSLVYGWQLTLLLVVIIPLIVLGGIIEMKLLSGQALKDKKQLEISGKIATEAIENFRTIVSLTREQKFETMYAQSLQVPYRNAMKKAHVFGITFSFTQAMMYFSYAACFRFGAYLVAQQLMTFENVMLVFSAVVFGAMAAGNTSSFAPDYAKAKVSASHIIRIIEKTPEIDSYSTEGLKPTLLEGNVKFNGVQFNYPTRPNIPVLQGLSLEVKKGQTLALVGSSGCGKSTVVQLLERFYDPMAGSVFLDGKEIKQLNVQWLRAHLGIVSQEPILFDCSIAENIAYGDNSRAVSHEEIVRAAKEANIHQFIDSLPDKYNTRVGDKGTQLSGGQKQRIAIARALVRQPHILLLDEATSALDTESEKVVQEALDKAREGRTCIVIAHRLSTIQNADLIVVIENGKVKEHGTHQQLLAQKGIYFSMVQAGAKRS

Take `CCCCCCn1c(-c2ccc(N(C)C)cc2)nc2ccccc2c1=O`: the IC50 was above 100 µM in experiment [1] and 40 µM in experiment [2].

On to `COc1cc2c(cc1OC)CN(CCn1c(-c3cccc(N(C)C)c3)nc3ccccc3c1=O)CC2`, for which the values for the IC50 in experiment [1] and in experiment [2] were 4.5 µM and 1.6 µM, respectively.

As for `COc1cc(C(=O)N2CCN(CCn3c(-c4ccc(N(C)C)cc4)nc4ccccc4c3=O)CC2)cc(OC)c1OC`, the IC50 in experiment [1] worked out at 7.2 µM; in experiment [2] it was 4.2 µM.

Turning to `COc1cc2c(cc1OC)CN(CCn1c(-c3ccccc3)nc3ccccc3c1=O)CC2`, the results for the IC50 in experiment [1] and in experiment [2] were 2.8 µM and 8 µM, respectively.

In the case of `COc1cc2c(cc1OC)CN(CCn1c(-c3ccc(N(C)C)cc3)nc3cc(N)ccc3c1=O)CC2`, the results for the half-inhibitory concentration (IC50) in experiment [1] and in experiment [2] were 18.6 µM and 7.2 µM, respectively.

For `COc1cc2c(cc1OC)CN(CCn1c(-c3ccc4c(c3)OCO4)nc3ccccc3c1=O)CC2`, the results for the IC50 in experiment [1] and in experiment [2] were 1.5 µM and 3.7 µM, respectively.

As to `CN(C)c1ccc(-c2nc3ccccc3c(=O)n2CCc2ccncc2)cc1`, the IC50 in experiment [1] worked out at 3.33 µM; in experiment [2] it was 10 µM.

In the case of `COc1cc2c(cc1OC)CN(CCn1c(-c3ccc4ccccc4c3)nc3ccccc3c1=O)CC2`, the IC50 came out at 0.9 µM in experiment [1] and 0.85 µM in experiment [2].

For the compound `COc1cc2c(cc1OC)CN(CCn1c(-c3ccc(C(C)C)cc3)nc3ccccc3c1=O)CC2`, the figures for the IC50 in experiment [1] and in experiment [2] were 0.5 µM and 1 µM, respectively.

On to `COc1cc2c(cc1OC)CN(CCn1c(-c3ccc(N(C)C)cc3)nc3c(C)cccc3c1=O)CC2`, for which the IC50 is 6.35 µM in experiment [1] and 0.63 µM in experiment [2].

For the compound `COc1cc2c(cc1OC)CN(CCn1c(-c3ccc(N(C)C)cc3)nc3ccc([N+](=O)[O-])cc3c1=O)CC2`, the IC50 in experiment [1] came to 0.4 µM; in experiment [2], 0.6 µM.

For the compound `CCCc1cccc(-c2nc3ccccc3c(=O)n2CCN2CCc3cc(OC)c(OC)cc3C2)c1`, the IC50 is 1 µM in experiment [1] and 0.8 µM in experiment [2].

Turning to `CN(C)c1ccc(-c2nc3ccccc3c(=O)n2Cc2ccccc2)cc1`, the IC50 was above 100 µM in experiment [1] and 41 µM in experiment [2].

Consider `COc1cc2c(cc1OC)CN(CCn1c(-c3ccc(N(C)C)cc3)nc3cc([N+](=O)[O-])ccc3c1=O)CC2`, for which the IC50 was found to be 2.02 µM in experiment [1] and 1.1 µM in experiment [2].

As for `COc1cc(C(=O)C(=O)N2CCCC[C@H]2C(=O)OC(CCCc2cccnc2)CCCc2cccnc2)cc(OC)c1OC` [BIRICODAR], the IC50 worked out at 5.18 µM in experiment [1] and 5 µM in experiment [2].

For the compound `COc1ccc(CCN(C)CCn2c(-c3ccc(N(C)C)cc3)nc3ccccc3c2=O)cc1OC`, the IC50 in experiment [1] is 37 µM; in experiment [2], 1.9 µM.

Take `COc1cc2c(cc1OC)CN(CCn1c(-c3ccccc3O)nc3ccccc3c1=O)CC2`: in experiment [1], the IC50 turned out to be 95 µM.

Regarding `COc1cc2c(cc1OC)CN(CCn1c(-c3ccc(N(C)C)cc3)nc3c(OC)cccc3c1=O)CC2`, the figures for the half-inhibitory concentration (IC50) in experiment [1] and in experiment [2] were 15.1 µM and 0.05 µM, respectively.

For the compound `CN(C)c1ccc(-c2nc3ccccc3c(=O)n2CCN2CCc3ccccc3C2)cc1`, the IC50 is 3.2 µM in experiment [1] and 5 µM in experiment [2].

On to `COc1cc2c(cc1OC)CN(CCn1c(-c3ccc(N(C)C)cc3)nc3ccccc3c1=O)CC2`, for which the EC50 is 3.01 µM in experiment [3] and 3.3 µM in the experiment on EMT6. For the same compound, the IC50 worked out at 1.05 µM in experiment [1] and 1.07 µM in experiment [2].

Regarding `CN(C)c1ccc(-c2nc3ccccc3c(=O)n2CC2CCCCC2)cc1`, the IC50 in experiment [1] was 10 µM; in experiment [2], 14 µM.

Regarding `COc1cc2c(cc1OC)CN(CCn1c(-c3ccc(N(C)C)cc3)nc3cc(Cl)ccc3c1=O)CC2`, the IC50 in experiment [1] was 1.33 µM; in experiment [2], 1.35 µM.

On to `CN(C)c1ccc(-c2nc3ccccc3c(=O)n2CCN2CCN(Cc3ccccc3)CC2)cc1`, for which the IC50 in experiment [1] amounted to 39 µM; in experiment [2], 2.1 µM.

As to `COc1cc2c(cc1OC)CN(CCn1c(-c3ccc(N(C)C)cc3)nc3ccc(Cl)cc3c1=O)CC2`, the IC50 was 1.56 µM in experiment [1] and 1.7 µM in experiment [2].

In the case of `CCN(CC)c1ccc(-c2nc3ccccc3c(=O)n2CCN2CCc3cc(OC)c(OC)cc3C2)cc1`, the results for the IC50 in experiment [1] and in experiment [2] were above 10 µM and 1.3 µM, respectively.

On to `COc1cc2c(cc1OC)CN(CCn1c(-c3ccc(N(C)C)cc3)nc3cccc(Cl)c3c1=O)CC2`, for which the IC50 came to 3.84 µM in experiment [1] and 0.16 µM in experiment [2].

`CN(C)c1ccc(-c2nc3ccccc3c(=O)n2CCN2CCN(c3ncccn3)CC2)cc1`: the IC50 in experiment [1] came out at 36 µM; in experiment [2], 0.39 µM.

On to `COc1cc2c(cc1OC)CN(CCn1c(-c3ccc(N(C)C)cc3)nc3c(Cl)cccc3c1=O)CC2`, for which the IC50 in experiment [1] was 2.91 µM; in experiment [2], 1.06 µM.

Consider `COc1cc2c(cc1OC)CN(CCn1c(-c3ccc(-c4ccccc4)cc3)nc3ccccc3c1=O)CC2`, for which the IC50 in experiment [1] was 1 µM; in experiment [2] it was 1.03 µM.

As for `COc1cc2c(cc1OC)CN(CCn1c(-c3ccc(N(C)C)cc3)nc3ccc(N)cc3c1=O)CC2`, the results for the IC50 in experiment [1] and in experiment [2] were 7.6 µM and 2 µM, respectively.

The values are drawn from ChEMBL document CHEMBL1135064, “Studies on quinazolinones as dual inhibitors of Pgp and MRP1 in multidrug resistance” (Bioorg Med Chem Lett, 2002).
